{"source": "paper PMC6934184", "about": "“Selective DNA-PKcs inhibition extends the therapeutic index of localized radiotherapy and chemotherapy” (The Journal of Clinical Investigation, 2019)", "biological_target": "T1, PDGFRA V561D (Homo sapiens, UniProt P16234, V561D)", "T1 construct": "purchased Thermo Fisher Scientific (Life Technologies) SelectScreen", "T1 sequence (P16234 24-1089 V561D)": "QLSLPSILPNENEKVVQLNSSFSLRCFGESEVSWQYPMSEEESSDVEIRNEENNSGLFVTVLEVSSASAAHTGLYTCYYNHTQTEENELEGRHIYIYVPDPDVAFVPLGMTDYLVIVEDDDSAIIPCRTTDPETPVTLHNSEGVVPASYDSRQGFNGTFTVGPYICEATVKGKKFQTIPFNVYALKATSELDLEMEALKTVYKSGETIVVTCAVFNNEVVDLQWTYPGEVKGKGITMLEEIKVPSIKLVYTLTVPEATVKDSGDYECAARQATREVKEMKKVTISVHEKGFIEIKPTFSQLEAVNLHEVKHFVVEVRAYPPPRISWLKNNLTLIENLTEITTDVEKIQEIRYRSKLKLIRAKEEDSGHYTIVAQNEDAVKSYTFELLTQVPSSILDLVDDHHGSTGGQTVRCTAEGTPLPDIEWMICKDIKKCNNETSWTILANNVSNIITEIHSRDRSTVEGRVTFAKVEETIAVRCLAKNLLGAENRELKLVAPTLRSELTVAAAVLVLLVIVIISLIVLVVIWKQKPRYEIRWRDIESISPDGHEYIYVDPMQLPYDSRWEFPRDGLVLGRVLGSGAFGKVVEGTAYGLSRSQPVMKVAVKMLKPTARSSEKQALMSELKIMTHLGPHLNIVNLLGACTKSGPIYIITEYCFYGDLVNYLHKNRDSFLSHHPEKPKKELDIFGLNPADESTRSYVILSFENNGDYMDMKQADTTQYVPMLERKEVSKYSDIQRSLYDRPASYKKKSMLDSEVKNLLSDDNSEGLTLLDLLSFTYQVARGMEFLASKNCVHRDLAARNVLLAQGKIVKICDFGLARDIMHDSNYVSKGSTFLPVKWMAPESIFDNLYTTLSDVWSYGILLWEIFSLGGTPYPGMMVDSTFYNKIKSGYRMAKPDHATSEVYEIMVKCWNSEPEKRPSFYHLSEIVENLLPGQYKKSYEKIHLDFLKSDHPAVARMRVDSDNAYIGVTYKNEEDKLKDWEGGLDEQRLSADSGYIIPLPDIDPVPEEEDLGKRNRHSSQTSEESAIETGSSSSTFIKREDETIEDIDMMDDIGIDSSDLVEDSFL", "assay": "SelectScreen Z'LYTE", "format": "biochemical", "summary_of_the_method": "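SelectScreen broad panel; activity (Z'LYTE, Adapta) plus binding formats. ATP: Km app for CSF1R Z'LYTE; 10 for CAMK1 Adapta. Readout = % per kinase.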"}
{"smiles": "CN(C(=O)CN1CCOCC1)c1ccc2sc3c(-c4cccc5c(=O)cc(N6CC7CCC(C6)O7)oc45)cccc3c2c1", "note": "[NU5455]", "values": [{"measurement": "inhibition at 1 µM", "result": -2.3, "unit": "%"}]}
